# Patent US11077120B2, “Prostaglandin receptor EP2 antagonists, derivatives, compositions, and uses related thereto” (Emory University, priority 2014, dated 2021)
# Like-named read-outs stand apart in the source and are kept apart here.
# Legend:
# human DP1 receptors = biological target: T1, human DP1 receptors (Homo sapiens, UniProt Q13258); assay: cell-based cAMP TR-FRET assay, DP1 (agonist BW245C)
# T1 construct: expressed in transfected cells
# T1 sequence (Q13258 1-359): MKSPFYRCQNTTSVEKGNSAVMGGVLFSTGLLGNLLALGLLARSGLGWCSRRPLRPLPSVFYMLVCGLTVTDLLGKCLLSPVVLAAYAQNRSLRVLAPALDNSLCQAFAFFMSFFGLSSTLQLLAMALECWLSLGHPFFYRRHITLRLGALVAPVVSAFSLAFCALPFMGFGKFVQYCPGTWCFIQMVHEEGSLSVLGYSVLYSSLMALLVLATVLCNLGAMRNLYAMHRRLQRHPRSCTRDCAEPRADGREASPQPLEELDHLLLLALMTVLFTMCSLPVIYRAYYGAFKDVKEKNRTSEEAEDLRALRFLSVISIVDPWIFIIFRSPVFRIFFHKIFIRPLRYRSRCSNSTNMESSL
# Experimental: (§1) The synthesis was carried out starting from commercially available 2-methyl indole or 2-trifluoromethyl indoles (11a-c), which on treatment with bromoacetonitrile provided intermediates (12a-c), which then were subjected to lithium aluminum hydride to reduce cyanide to amines. […] Synthesized derivatives were tested by using a cAMP-derived TR-FRET assay, at single concentration (1 μM) to observe a rightward shift of PGE2 (an EP2 agonist) concentration response curve in a C6G cell line that overexpresses human EP2 receptors.
# Intracellular cAMP was measured with a cell-based homogeneous time-resolved fluorescence resonance energy transfer (TR-FRET) method (Cisbio Bioassays). […] Endogenous cAMP produced by cells competes with labeled cAMP for binding to the cAMP antibody and thus reduces the FRET signal. Cells stably expressing human DP1, EP2, EP4, or IP receptors were seeded into 384-well plates in 30 μl complete medium (4,000 cells/well) and grown overnight. The medium was carefully withdrawn and 10 μl Hanks' Buffered Salt Solution (HBSS) (Hyclone) containing 20 μM rolipram was added into the wells to block phosphodiesterases. The cells were incubated at room temperature for 0.5-1 h and then treated with vehicle or test compound for 10 min before addition of increasing concentrations of appropriate agonist: BW245C for DP1, PGE2 for EP2 and EP4, or iloprost for IP. The cells were incubated at room temperature for 40 min, then lysed in 10 μl lysis buffer containing the FRET acceptor cAMP-d2 and 1 min later another 10 μl lysis buffer with anti-cAMP-Cryptate was added. […] The FRET signal was expressed as: F665/F590×10^4.
# human EP2 receptors = biological target: T2, human EP2 receptors (Homo sapiens, UniProt P43116); assay: cell-based cAMP TR-FRET assay, rightward shift of PGE2 concentration response curve (Schild KB), EP2; details: read-out: EP2 KB
# T2 construct: expressed in transfected cells
# Experimental: KB value indicates the antagonist concentration required for a twofold rightward shift in the PGE2 dose-response curve. Thus, a lower KB value indicates a higher inhibitory potency.
# as §1
# A lower KB value indicates a higher inhibitory potency.
# (§2) Intracellular cAMP was measured with a cell-based homogeneous time-resolved fluorescence resonance energy transfer (TR-FRET) method (Cisbio Bioassays). […] Endogenous cAMP produced by cells competes with labeled cAMP for binding to the cAMP antibody and thus reduces the FRET signal. Cells stably expressing human DP1, EP2, EP4, or IP receptors were seeded into 384-well plates in 30 μl complete medium (4,000 cells/well) and grown overnight. The medium was carefully withdrawn and 10 μl Hanks' Buffered Salt Solution (HBSS) (Hyclone) containing 20 μM rolipram was added into the wells to block phosphodiesterases. The cells were incubated at room temperature for 0.5-1 h and then treated with vehicle or test compound for 10 min before addition of increasing concentrations of appropriate agonist: BW245C for DP1, PGE2 for EP2 and EP4, or iloprost for IP. The cells were incubated at room temperature for 40 min, then lysed in 10 μl lysis buffer containing the FRET acceptor cAMP-d2 and 1 min later another 10 μl lysis buffer with anti-cAMP-Cryptate was added. After 60-90 min incubation at room temperature, the FRET signal was measured by an Envision 2103 Multilabel Plate Reader (PerkinElmer Life Sciences) with a laser excitation at 337 nm and dual emissions at 665 nm and 590 nm for d2 and Cryptate (50 s delay), respectively. The FRET signal was expressed as: F665/F590×10^4.
# human EP4 receptors = biological target: T3, human EP4 receptors (Homo sapiens, UniProt P35408); assay: cell-based cAMP TR-FRET assay, EP4 (agonist PGE2); details: for Selective Index EP4/EP2 / potency estimated from few doses: Table 2; for potency estimated from few doses: extrapolated Schild KB from single concentration of 10 μM
# T3 construct: expressed in transfected cells
# Experimental: (§3) These derivatives were selected for testing against EP4 and IP receptors. Cell lines were created that overexpress EP4 receptors, or IP receptors on C6-glioma cells. A cAMP-derived TR-FRET assay was developed using agonists PGE2 (for EP4) and iloprost (for IP), similar to EP2 assay.
# as §2
# human IP receptors = biological target: T4, human IP receptors (Homo sapiens, UniProt P43119); assay: cell-based cAMP TR-FRET assay, IP (agonist iloprost); details: Table 2; for potency estimated from few doses: extrapolated Schild KB from single concentration of 10 μM
# T4 construct: expressed in transfected cells
# Experimental: as §3, §2
# C6-glioma cells = details: rat
# Experimental: CC50 are average one measurement run in triplicate.
# Several of compounds were examined against EP4 and IP receptors at single concentration of 10 μM.
# [1] = Table 1, Schild KB from single antagonist concentration 1 μM, average of 2-3 measurements in duplicate
# T4 sequence (P43119 whole entry): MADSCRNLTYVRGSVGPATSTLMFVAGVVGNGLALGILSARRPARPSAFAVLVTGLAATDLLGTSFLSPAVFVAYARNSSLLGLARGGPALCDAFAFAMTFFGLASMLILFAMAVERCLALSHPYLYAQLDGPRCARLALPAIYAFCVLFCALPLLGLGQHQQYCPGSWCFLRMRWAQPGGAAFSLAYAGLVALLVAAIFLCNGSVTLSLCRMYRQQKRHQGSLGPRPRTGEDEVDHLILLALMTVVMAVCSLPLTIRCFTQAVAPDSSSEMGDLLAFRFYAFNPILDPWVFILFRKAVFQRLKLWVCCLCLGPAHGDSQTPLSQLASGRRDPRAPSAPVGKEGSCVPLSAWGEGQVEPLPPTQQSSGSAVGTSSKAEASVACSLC
# T3 sequence (P35408 whole entry): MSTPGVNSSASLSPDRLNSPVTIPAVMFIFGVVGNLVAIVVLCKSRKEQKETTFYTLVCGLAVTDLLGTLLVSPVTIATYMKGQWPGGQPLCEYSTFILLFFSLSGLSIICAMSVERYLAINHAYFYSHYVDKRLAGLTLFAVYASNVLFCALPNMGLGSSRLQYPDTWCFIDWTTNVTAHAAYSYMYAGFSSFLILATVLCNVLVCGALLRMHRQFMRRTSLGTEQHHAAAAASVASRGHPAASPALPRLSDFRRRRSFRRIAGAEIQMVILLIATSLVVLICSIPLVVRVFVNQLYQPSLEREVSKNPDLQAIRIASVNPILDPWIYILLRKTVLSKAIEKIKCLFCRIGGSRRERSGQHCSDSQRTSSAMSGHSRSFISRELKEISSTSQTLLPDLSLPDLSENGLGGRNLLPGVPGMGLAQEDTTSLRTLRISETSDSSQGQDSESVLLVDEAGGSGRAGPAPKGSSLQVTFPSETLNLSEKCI
# T2 sequence (P43116 whole entry): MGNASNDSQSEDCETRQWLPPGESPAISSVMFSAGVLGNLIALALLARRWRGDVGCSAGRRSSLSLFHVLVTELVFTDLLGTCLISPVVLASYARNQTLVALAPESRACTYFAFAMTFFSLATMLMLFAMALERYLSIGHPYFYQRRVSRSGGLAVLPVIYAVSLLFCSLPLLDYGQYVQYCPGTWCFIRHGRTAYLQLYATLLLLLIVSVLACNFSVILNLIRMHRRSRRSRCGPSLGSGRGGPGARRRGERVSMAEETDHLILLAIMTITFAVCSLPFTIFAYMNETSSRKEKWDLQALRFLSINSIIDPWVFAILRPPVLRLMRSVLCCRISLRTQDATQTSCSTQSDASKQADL
structure (smiles),measurement,setting,value
C#Cc1ccc(C(=O)NCCn2c(C)cc3ccccc32)cc1 [TG8-52],Kb,"human DP1 receptors; Table 6, read-out: DP1 KB",609 nM
same,Kb,human EP2 receptors; Table 6,77.5 nM
Cc1cc2ccccc2n1CCNC(=O)c1ccc(N2CCC(O)CC2)cc1 [Compound 7w],Selective Index EP4/EP2,human EP4 receptors,"2,629"
same,potency estimated from few doses,human EP4 receptors,70300 nM
same,Selective Index (IP/EP2),human IP receptors,675
same,potency estimated from few doses,human IP receptors,18100 nM
same,Selective Index (DP1/EP2),human DP1 receptors; Table 2,172
same,CC50,C6-glioma cells,163000 nM
same,Therapeutic Index (CC50/EP2 KB),C6-glioma cells,"6,082"
same,concentration showing an effect on cell viability,C6-glioma cells,> 100 µM
CCCN(CCC)c1ccc(C(=O)NCCn2c(C)cc3ccccc32)cc1 [Compound 6g],Selective Index EP4/EP2,human EP4 receptors,1320
same,potency estimated from few doses,human EP4 receptors,15500 nM
same,Selective Index (IP/EP2),human IP receptors,95
same,potency estimated from few doses,human IP receptors,1120 nM
same,Selective Index (DP1/EP2),human DP1 receptors; Table 2,298
same,CC50,C6-glioma cells,332000 nM
same,Therapeutic Index (CC50/EP2 KB),C6-glioma cells,"28,130"
Cc1cc2ccccc2n1CCNC(=O)c1ccc(-c2cn(COCc3ccccc3)nn2)cc1 [TG8-54],Kb,"human DP1 receptors; Table 6, read-out: DP1 KB",3390 nM
same,Kb,human EP2 receptors; Table 6,164 nM
Cc1cc2ccccc2n1CCNC(=O)c1ccc(-n2cc(CO)nn2)cc1 [TG8-60],Kb,"human DP1 receptors; Table 6, read-out: DP1 KB",2420 nM
same,Kb,human EP2 receptors; Table 6,28.2 nM
Cc1cc2ccccc2n1C1CCCN(C(=O)c2ccc(N3CCOCC3)cc2)C1 (centres unmarked) [TG7-292],DP1 KB,human DP1 receptors; Table 6,Inactive
same,Kb,human EP2 receptors; Table 6,1790 nM
Cc1cc2ccccc2n1CCNC(=O)c1ccc(N2CCCCCC2)cc1 [Compound 7o],Selective Index EP4/EP2,human EP4 receptors,"1,045"
same,potency estimated from few doses,human EP4 receptors,23600 nM
same,Selective Index (IP/EP2),human IP receptors,375
same,potency estimated from few doses,human IP receptors,8500 nM
same,Selective Index (DP1/EP2),human DP1 receptors; Table 2,342
same,CC50,C6-glioma cells,327000 nM
same,Therapeutic Index (CC50/EP2 KB),C6-glioma cells,"14,470"
Cc1cc2ccccc2n1CCNC(=O)c1ccc(-c2cn(Cc3ccccc3)nn2)cc1 [TG8-55],Kb,"human DP1 receptors; Table 6, read-out: DP1 KB",6960 nM
same,Kb,human EP2 receptors; Table 6,305 nM
Cc1cc2ccccc2n1CCNC(=O)c1cnc(N2CCC(CO)CC2)nc1 [TG8-59],Kb,"human DP1 receptors; Table 6, read-out: DP1 KB",5850 nM
same,Kb,human EP2 receptors; Table 6,159 nM
Cc1cc2ccccc2n1CCNC(=O)c1ccc(OCCO)cc1 [TG8-12],Kb,"human DP1 receptors; Table 6, read-out: DP1 KB",2740 nM
same,Kb,human EP2 receptors; Table 6,133 nM
Cc1[nH]c2ccccc2c1CCNC(=O)c1ccc(N(C)C)cc1 [Compound 8z],potency estimated from few doses,human EP4 receptors,16400 nM
same,potency estimated from few doses,human IP receptors,63100 nM
same,CC50,C6-glioma cells,320000 nM
O=C(NCCn1c(C(F)(F)F)cc2ccccc21)c1ccc(-c2nnn[nH]2)cc1 [TG8-47],Kb,"human DP1 receptors; Table 6, read-out: DP1 KB",795 nM
same,Kb,human EP2 receptors; Table 6,1110 nM
CCOC(=O)C1CCN(c2ccc(C(=O)NCCn3c(C(F)(F)F)cc4ccccc43)cc2)CC1 [TG8-42],Kb,"human DP1 receptors; Table 6, read-out: DP1 KB",3240 nM
same,Kb,human EP2 receptors; Table 6,2740 nM
Cc1cc2cc(Br)ccc2n1CCNC(=O)c1ccc(N2CCOCC2)cc1 [TG7-300],Kb,"human DP1 receptors; Table 6, read-out: DP1 KB",18900 nM
same,Kb,human EP2 receptors; Table 6,247 nM
Cc1cc2ccccc2n1CCNC(=O)c1ccc(N2CCN(C)CC2)c(F)c1 [Compound 7u],selectivity over EP4,human EP4 receptors; EP2 over EP4,100 fold
same,Selective Index EP4/EP2,human EP4 receptors,106
same,potency estimated from few doses,human EP4 receptors,4760 nM
same,Selective Index (IP/EP2),human IP receptors,"1,420"
same,potency estimated from few doses,human IP receptors,64000 nM
same,Selective Index (DP1/EP2),human DP1 receptors; Table 2,22
same,CC50,C6-glioma cells,300000 nM
same,Therapeutic Index (CC50/EP2 KB),C6-glioma cells,"6,660"
Cc1cc2ccccc2n1CCNC(=O)c1cc(-c2ccccc2)no1 [TG7-242],DP1 KB,human DP1 receptors; Table 6,Inactive
same,Kb,human EP2 receptors; Table 6,29.5 nM
O=C(NCCn1c(C(F)(F)F)cc2ccccc21)c1ccc(N2CCC(C(=O)O)CC2)cc1 [TG8-46],Kb,"human DP1 receptors; Table 6, read-out: DP1 KB",1060 nM
same,Kb,human EP2 receptors; Table 6,413 nM
"Cc1cc2ccccc2n1CCNC(=O)c1ccc2c(c1)n(C)c(=O)n2C [Compound 8a, 1,3-Dimethyl-N-(2-(2-methyl-1H-indol-1-yl)ethyl)-2-oxo-2,3-dihydro-1H-benzo[d]imidazole-5-carboxamide]",Selective Index EP4/EP2,human EP4 receptors,1730
same,potency estimated from few doses,human EP4 receptors,36100 nM
same,Selective Index (IP/EP2),human IP receptors,1200
same,potency estimated from few doses,human IP receptors,25200 nM
same,Selective Index (DP1/EP2),human DP1 receptors; Table 2,300
same,Kb,"human DP1 receptors; Table 2, read-out: KB DP1",6290 nM
same,CC50,C6-glioma cells,154000 nM
same,Therapeutic Index (CC50/EP2 KB),C6-glioma cells,"7,370"
same,concentration showing an effect on cell viability,C6-glioma cells,> 100 µM
same,Kb,human EP2 receptors; [1],20.9 nM
Cc1[nH]c2ccccc2c1CCNC(=O)c1ccc(N2CCOCC2)cc1 [Compound 9c],CC50,C6-glioma cells,311000 nM
CCN(CC)c1ccc(C(=O)NCCn2c(C)nc3ccccc32)cc1 [Compound 8v],Kb,human EP2 receptors; [1],190 nM
Cc1cc2ccccc2n1CCNC(=O)c1ccc(N=[N+]=[N-])cc1 [TG7-297],Kb,"human DP1 receptors; Table 6, read-out: DP1 KB",1890 nM
same,Kb,human EP2 receptors; Table 6,89.4 nM
Cc1cc2ccccc2n1CCNC(=O)c1ccc(N2CCC(C)CC2)cc1 [Compound 7l],Kb,human EP2 receptors; [1],30.3 nM
CCNc1ccc(C(=O)NCCn2c(C)cc3ccccc32)cc1C(F)(F)F [Compound 7f],Kb,human EP2 receptors; [1],20.2 nM
Cc1cc2ccccc2n1CCNC(=O)c1cc(-c2ccc(F)cc2)n[nH]1 [TG7-245],Kb,"human DP1 receptors; Table 6, read-out: DP1 KB",140000 nM
same,Kb,human EP2 receptors; Table 6,22.7 nM
Cc1cc2ccccc2n1CCNC(=O)c1ccc(NC(=N)N)cc1 [Compound 6k],Kb,human EP2 receptors; [1],> 1000 nM
COc1ccc(C(=O)NCCn2c(C)cc3ccccc32)cc1OC [Compound 6b],Kb,"human DP1 receptors; Table 6, read-out: DP1 KB",1350 nM
same,Kb,human EP2 receptors; [1],22.3 nM
same,Kb,human EP2 receptors; Table 6,26.7 nM
Cc1cc2ccccc2n1CCNC(=O)c1cc(CC(C)C)no1 [TG7-277],Kb,human EP2 receptors; Table 6,172 nM
Cc1cc2ccccc2n1CCNC(=O)c1ccc(CN2CCN(C)CC2)cc1 [Compound 8k],Kb,human EP2 receptors; [1],> 1000 nM
O=C(NCCn1c(C(F)(F)F)cc2ccccc21)c1ccc(N2CCOCC2)cc1 [Compound 8u],Kb,human EP2 receptors; [1],120 nM
Cc1cc2ccccc2n1CCNC(=O)c1ccc(OCCO)c(OCCO)c1 [TG8-3],Kb,"human DP1 receptors; Table 6, read-out: DP1 KB",62900 nM
same,Kb,human EP2 receptors; Table 6,271 nM
Cc1cc2ccccc2n1CCNC(=O)c1ccc(N2CCN(C)CC2)cc1 [Compound 7q],Kb,human EP2 receptors; [1],64 nM
Cc1cc2ccccc2n1CCNC(=O)c1ccc(N2CCC(C(=O)N(C)C)CC2)cc1 [TG8-64],Kb,human EP2 receptors; Table 6,190 nM
